Measured values taken from the NIST ThermoML archive (doi:10.1016/j.jct.2018.11.010).

Assay: xn = mol fraction of the nth substance listed
Details: 298.15 K, Liquid, Vibrating tube method

CCCCCCCO [heptan-1-ol] + CCCCOCCCC
mass density [kg/m3]
Details | x2 = 0 | x2 = 0.1488 | x2 = 0.3201 | x2 = 0.4944 | x2 = 0.7014 | x2 = 0.8534
100 kPa | 818.7 | 810.1 | 800.3 | 790.9 | 779.5 | 771.7
1000 kPa | 819.3 | 810.8 | 801 | 791.6 | 780.2 | 772.5
5000 kPa | 821.9 | 813.5 | 803.9 | 794.6 | 783.5 | 775.8
10000 kPa | 824.9 | 816.7 | 807.3 | 798.3 | 787.3 | 779.9
15000 kPa | 828 | 819.9 | 810.6 | 801.8 | 791 | 783.7
20000 kPa | 830.8 | 822.9 | 813.8 | 805 | 794.5 | 787.4
25000 kPa | 833.5 | 825.8 | 816.9 | 808.3 | 797.9 | 790.8
30000 kPa | 836.3 | 828.6 | 819.8 | 811.4 | 801.1 | 794.2
35000 kPa | 838.8 | 831.2 | 822.6 | 814.3 | 804.2 | 797.4
40000 kPa | 841.3 | 833.9 | 825.3 | 817.1 | 807.3 | 800.5
45000 kPa | 843.8 | 836.5 | 828 | 819.9 | 810.2 | 803.5
50000 kPa | 846.2 | 838.9 | 830.6 | 822.6 | 813 | 806.4
55000 kPa | 848.5 | 841.3 | 833.1 | 825.3 | 815.7 | 809.2
60000 kPa | 850.8 | 843.7 | 835.5 | 827.8 | 818.4 | 811.9
65000 kPa | 853 | 845.9 | 837.9 | 830.3 | 820.9 | 814.6
70000 kPa | 855.2 | 848.2 | 840.3 | 832.7 | 823.5 | 817.2
80000 kPa | 859.4 | 852.6 | 844.8 | 837.3 | 828.3 | 822.2
